Data: PubChem BioAssay (NCI)
Several values for one entry are separate records, joined by “and”; a condition that tells them apart may be missing. Equal entries are not always repeated.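 Exposure lasted 48 hours, with cells grown in 96-well plates and compounds tested at five concentrations. Here, GI50 denotes the concentration required for 50% inhibition of growth. TGI is the concentration that stops growth completely.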

Assays:
Test in all cases: growth of human tumour cells (NCI), 48 h
LOX IMVI melanoma = system: LOX IMVI melanoma
A549 NSCLC = system: A549 NSCLC
MDA-MB-231 breast = system: MDA-MB-231 breast
SK-MEL-5 melanoma = system: SK-MEL-5 melanoma
DU-145 prostate = system: DU-145 prostate
EKVX NSCLC = system: EKVX NSCLC
IGROV1 ovarian = system: IGROV1 ovarian
OVCAR-3 ovarian = system: OVCAR-3 ovarian
KM12 colon = system: KM12 colon
HCT-15 colon = system: HCT-15 colon

Row | SMILES | GI50 (LOX IMVI melanoma) [µM] | TGI (LOX IMVI melanoma) [µM] | GI50 (A549 NSCLC) | TGI (A549 NSCLC) [µM] | GI50 (MDA-MB-231 breast) [µM] | TGI (MDA-MB-231 breast) [µM] | GI50 (SK-MEL-5 melanoma) [µM] | TGI (SK-MEL-5 melanoma) [µM] | GI50 (DU-145 prostate) | TGI (DU-145 prostate) | GI50 (EKVX NSCLC) [µM] | TGI (EKVX NSCLC) [µM] | GI50 (IGROV1 ovarian) [µM] | TGI (IGROV1 ovarian) | GI50 (OVCAR-3 ovarian) | TGI (OVCAR-3 ovarian) [µM] | TGI (KM12 colon) | TGI (HCT-15 colon) | GI50 (HCT-15 colon) | GI50 (KM12 colon) [µM]
1 | Nc1ncn([C@H]2C[C@H](OP(=O)(O)OC[C@H]3O[C@@H](n4cnc5c(=O)[nH]c(N)nc54)C[C@@H]3O)[C@@H](CO)O2)c(=O)n1 | 57 | > 100 | 82.9 µM | > 100 | > 100 | > 100 | > 100 | > 100 | > 100 µM | > 100 µM | > 100 | > 100 | > 100 | > 100 µM | > 100 µM | > 100 |  |  |  | 
2 | COC12OCCN(C)C1=CC(=O)C1(C)N=NCC12 (centres undefined) |  | > 100 |  | > 100 |  |  |  | > 100 |  |  |  | > 100 |  | > 100 µM |  | > 100 | > 100 µM | > 100 µM |  | 
3 | CN1CCN(CCCN2c3ccccc3Sc3ccc(Cl)cc32)CC1 | 4.75 | 11.6 | 6.5 µM and 56.8 µM | 13.7 |  |  | 48.5 | 62 | 6.53 µM and 50.9 µM | 13.5 µM and 94.6 µM | 5.46 | 12.4 |  | 11.7 µM and 67.3 µM | 5.94 µM and 55.2 µM | 12.8 | 12.4 µM and 95.2 µM | 11.5 µM and 77.8 µM | 5.12 µM and 48 µM | 
4 | O=C1NC(=NCCc2ccccn2)S/C1=C\c1ccc2ncccc2c1 | 13.3 | > 25 | 8.29 µM | > 25 | 18.5 | > 25 | 10.8 | > 25 | 11.7 µM | > 25 µM |  |  | 9.29 | > 25 µM | 9.88 µM | > 25 | > 25 µM | > 25 µM | 7.2 µM | 18.2
5 | CC(C)c1ccc(/C=C/c2cc(C(=O)NNC(=O)NC3CCCCC3)nc(=S)[nH]2)cc1 |  | > 100 |  | > 100 |  |  |  | > 100 |  |  |  | > 100 |  | > 100 µM |  | > 100 | > 100 µM | > 100 µM |  | 
6 | COc1cccc(C2SCc3nc4ccccc4n32)c1 (centres undefined) |  | > 100 |  | > 100 |  |  |  | 65.7 |  |  |  | > 100 |  | > 100 µM |  | > 100 | > 100 µM | > 100 µM |  | 
7 | Cc1ccc(S(=O)(=O)OCCOCCOCCOCCOCCOS(=O)(=O)c2ccc(C)cc2)cc1 |  | > 100 |  | > 100 |  |  |  | 65 |  |  |  | > 100 |  | > 100 µM |  | > 100 | > 100 µM | > 100 µM |  | 
8 | COc1cc(O)c2c(c1)C(=O)C1=C(C2=O)C(O)C[C@@](C)(O)C1 (some centres undefined) |  | 1.68 |  | 11.5 |  |  |  |  |  |  |  | 13.1 |  | 3.71 µM |  | 5.67 | 8.91 µM | 3.61 µM |  | 
9 | COc1cc(CCNC(=O)OC(C)(C)C)c2c(c1OC)SSSSS2 | 2.79 | 6.75 | 3.36 µM | 10.2 | 2.58 | 5.82 | 1.84 | 3.38 |  |  | 2.69 | 5.97 | 2.2 | 4.63 µM | 2.65 µM | 5.51 | 12.2 µM | 5.78 µM | 2.45 µM | 3.67
10 | COc1ccc2c(c1)[n+]([O-])c(/C(C)=N/NC(=O)c1ccccc1O)c(C)[n+]2[O-] |  | > 100 |  | > 100 |  |  |  | > 100 |  |  |  | > 100 |  | > 100 µM |  | > 100 | > 100 µM | > 100 µM |  | 
11 | COc1cc2nc3cc([N+](=O)[O-])ccc3c(NCCNCC(C)O)c2cc1OC (centres undefined) | 0.768 | 2.51 | 1.43 µM | 5.13 | 0.604 | 3.08 |  |  | 0.445 µM | 2.2 µM | 1.62 | 5.34 | 0.495 | 2.26 µM | 0.482 µM | 1.74 | 2.87 µM | 13.1 µM | 3.27 µM | 0.619
12 | CC(=O)N[C@@H](Cc1ccc(OP(=O)(O)O)cc1)C(=O)N[C@H]1CCC(=O)N2CCC[C@@H](C(=O)NCc3ccccc3)N2C1=O | > 25 | > 25 | > 25 µM | > 25 | > 25 | > 25 | > 25 | > 25 | > 25 µM | > 25 µM |  |  | > 25 | > 25 µM | > 25 µM | > 25 | > 25 µM | > 25 µM | > 25 µM | > 25
13 | O=C1C(c2ccccc2)=C(c2ccccc2)C(c2ccc(Sc3ccc(C4=C(c5ccccc5)C(=O)C(c5ccccc5)=C4c4ccccc4)cc3)cc2)=C1c1ccccc1 |  | > 100 |  | > 100 |  |  |  | > 100 |  |  |  | > 100 |  | > 100 µM |  | > 100 | > 100 µM | > 100 µM |  | 
14 | COC(=O)C1[C@H](c2ccc3c(c2)OCO3)OC(=O)[C@]1(C(=O)OC)C(=O)c1ccc(OC)c(OC)c1 (some centres undefined) |  | 36.1 |  |  |  |  |  | > 100 |  |  |  | > 100 |  | > 100 µM |  | > 100 | > 100 µM | > 100 µM |  | 
15 | O=C(CSSCC(=O)Nc1ccc(Br)cc1)Nc1ccc(Br)cc1 |  | 26.3 |  | 35.8 |  |  |  | 45.8 |  |  |  | 48.9 |  | 39 µM |  | 32.1 | 55.4 µM | 46.6 µM |  | 
16 | O=[N+]([O-])C=C1c2ccccc2-c2ccccc21 |  | 30.9 |  | 42.8 |  |  |  |  |  |  |  | 37.1 |  |  |  | 28.4 | 31.7 µM | 38.7 µM |  | 
17 | COc1cc(/C=C/C(=O)c2c(-c3ccc(F)cc3)nc3sc(C)nn23)cc(OC)c1OC | 1.76 | 3.52 | 2.53 µM | 8.63 | 1.99 | 8.51 | 1.86 | 3.99 | 2.91 µM | 10.4 µM |  |  | 2.69 | 6.71 µM | 2.63 µM | 7 | 4.59 µM | 5.46 µM | 2 µM | 1.97
18 | CCOC(=O)CN(c1ccccc1)c1nc(=[N+](C)C)ss1 |  |  |  | > 100 |  |  |  |  |  |  |  |  |  |  |  | 2 |  | 56.5 µM |  | 
19 | NCCSC(c1ccccc1)(c1ccccc1)c1ccccc1 | 1.42 | 2.9 | 0.742 µM | 6.03 | 0.607 | 2.33 | 1.01 | 2.25 | 2.32 µM | 6.07 µM |  |  | 1.25 | 8.32 µM | 1.52 µM | 6.13 | 4.82 µM | 1.75 µM | 0.409 µM | 1.84
